Measured values: patent US20240309418A1, “ENZYMATIC METHODS AND COMPOSITIONS FOR POLYMERIZATION OF PHOSPHORAMIDATE AND THIOPHOSPHORAMIDATE-LINKED DNA” (The General Hospital Corporation, priority 2023, published 2024)
Values joined by “and” are separate entries in the source; they are usually repeats but may differ in a detail not shown here. Identical values can stand only once. Like-named read-outs stand apart in the source and are kept apart here.

Assays:
[1] = target: wild-type BF (Geobacillus stearothermophilus, UniProt P52026); type: biochemical, Bacillus stearothermophilus; conditions: for Kinetics of 3′-amino primer extension vs. absence of added divalent metals: 5 mM metal ion, 55° C., pH 8.8; for kpol of 3′-amino primer extension by wild-type BF: varying metal chloride concentration; for Kd: in the presence of 1 mM dCTP, read-out: Kd,app (apparent dissociation constant of metal ion)
Description: Primer extension assays. Except where indicated, all extension reactions were performed with 1 μM fluorescein-labeled primer, 1.5 μM template, and ˜1.1 μM purified His6-tagged protein at 55° C. in a reaction buffer composed of 40 mM Tris-HCl, pH 8.8, 1 mM DTT, and a divalent cation as specified, typically 10 mM CaCl2. Reaction mixtures were equilibrated at the indicated reaction temperature for 1 min and initiated by addition of substrate. Progress was monitored by sampling 1 μL from the reaction manually quenched into 24 μL of chilled 90% formamide, 10 mM EDTA. Quenched samples were denatured at 90° C. for 1 min and cooled to room temperature prior to separation by denaturing polyacrylamide gel electrophoresis on 20% TBE-urea gels. To maintain strand separation for long extension products, as in FIGS. 3F-3H, an unlabeled DNA oligonucleotide complementary to the template was added to the quenching buffer (˜2 μM) prior to denaturation. Typically, 3 or 4 μL of quenched sample was loaded per lane for gels of 0.75-mm thickness. Bands were visualized with a Typhoon laser scanning imager (GE Amersham) and quantified with the manufacturer's software. For acid digestion of extended products, a reaction sample was diluted with 2.5 volumes of 1% acetic acid, 10 mM EDTA in formamide and digested at 75° C. for 45 min prior to gel separation.

[2] = target: T1, BF F710Y/D598A (Geobacillus stearothermophilus, UniProt P52026, A338V/A406G/A407V/A456E/A482S/A505K/A513T/A699P/A741E/D309E/D325E/D540E/D696E/D751E/E459R/E695D/F710Y/G324E/G408D/G483S/G600K/G678D/H329D/H417K/H567Y/H573N/H596R/H691Q/I672M/I841M/K356Q/L337V/L358V/L461F/M462L/M605I/N487E/P645S/P870S/Q512G/Q748R/R341H/R388C/R516Q/R816K/R823H/S306R/S424P/S812N/T369S/T436A/T442V/T475V/T491A/T508A/T536V/T728S/T790M/V391S/V413A/V537I/V598A/V619T/V813A); type: biochemical; design: burst activity kpol: unit not given here; conditions: for pre-steady-state rate constant for nCTP addition: 3′-amino terminal primer; for Acceleration of kinetics over Ca2+: nCTP addition
[3] = target: T2, BF F710Y (Geobacillus stearothermophilus, UniProt P52026, F710Y); assay: Solvent deuterium kinetic isotope effect (SDKIE) of 3′-amino primer extension; type: biochemical; conditions: 1 mM dCTP, 10 mM CaCl2, varying mole fraction D2O
[4] = target: T1, BF F710Y/D598A; type: biochemical; conditions: for Effect on NP-DNA polymerization with all four nNTPs on mixed sequence templates: vs. Ca2+
[5] = target: BF (Geobacillus stearothermophilus, UniProt P52026, F710Y); assay: Extension of a native DNA 3′-OH primer with nCTP and trivalent cofactors; type: biochemical; conditions: for pre-steady-state rate constant for extension of a native DNA 3′-OH terminus with nCTP: 5 mM metal, stoichiometric citrate, 55° C., mean±s.d.
[6] = target: T2, BF F710Y; assay: Elemental thio effect on pre-steady-state NP synthesis; type: biochemical; conditions: 45° C.

T1 sequence (P52026 other isoform, or with tags, fused parts or gaps with the stated changes): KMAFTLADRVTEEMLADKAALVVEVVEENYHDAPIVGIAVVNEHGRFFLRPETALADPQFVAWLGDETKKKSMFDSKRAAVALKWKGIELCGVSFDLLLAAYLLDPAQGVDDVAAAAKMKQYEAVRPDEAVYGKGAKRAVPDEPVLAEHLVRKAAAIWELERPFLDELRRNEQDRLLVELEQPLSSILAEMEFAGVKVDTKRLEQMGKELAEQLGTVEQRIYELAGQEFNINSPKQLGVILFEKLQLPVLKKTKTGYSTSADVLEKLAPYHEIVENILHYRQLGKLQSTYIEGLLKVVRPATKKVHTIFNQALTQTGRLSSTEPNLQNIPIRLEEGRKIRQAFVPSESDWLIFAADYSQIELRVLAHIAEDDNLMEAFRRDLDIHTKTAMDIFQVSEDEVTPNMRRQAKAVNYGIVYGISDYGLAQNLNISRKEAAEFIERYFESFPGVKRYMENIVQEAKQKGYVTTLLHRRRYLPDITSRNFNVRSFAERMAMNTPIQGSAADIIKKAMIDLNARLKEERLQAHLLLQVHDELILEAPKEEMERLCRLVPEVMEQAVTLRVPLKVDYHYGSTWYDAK
Chain of BF (P52026 other isoform, or with tags, fused parts or gaps with the stated changes): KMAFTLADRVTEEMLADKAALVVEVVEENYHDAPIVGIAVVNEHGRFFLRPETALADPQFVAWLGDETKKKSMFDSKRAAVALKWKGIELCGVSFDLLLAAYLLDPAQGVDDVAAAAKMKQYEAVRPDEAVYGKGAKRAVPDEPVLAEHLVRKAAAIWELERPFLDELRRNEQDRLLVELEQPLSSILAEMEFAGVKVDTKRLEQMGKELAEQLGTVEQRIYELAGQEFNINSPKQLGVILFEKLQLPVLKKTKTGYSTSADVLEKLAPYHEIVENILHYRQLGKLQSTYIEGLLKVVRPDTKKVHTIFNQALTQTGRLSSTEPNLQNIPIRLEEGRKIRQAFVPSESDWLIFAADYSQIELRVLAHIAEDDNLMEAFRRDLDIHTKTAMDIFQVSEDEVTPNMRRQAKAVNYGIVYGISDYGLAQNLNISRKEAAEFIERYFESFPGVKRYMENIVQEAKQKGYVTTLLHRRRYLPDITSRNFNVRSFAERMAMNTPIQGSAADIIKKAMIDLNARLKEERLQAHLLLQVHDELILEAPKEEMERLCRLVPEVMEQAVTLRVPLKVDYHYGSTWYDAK
Chain of wild-type BF (P52026 other isoform, or with tags, fused parts or gaps with the stated changes): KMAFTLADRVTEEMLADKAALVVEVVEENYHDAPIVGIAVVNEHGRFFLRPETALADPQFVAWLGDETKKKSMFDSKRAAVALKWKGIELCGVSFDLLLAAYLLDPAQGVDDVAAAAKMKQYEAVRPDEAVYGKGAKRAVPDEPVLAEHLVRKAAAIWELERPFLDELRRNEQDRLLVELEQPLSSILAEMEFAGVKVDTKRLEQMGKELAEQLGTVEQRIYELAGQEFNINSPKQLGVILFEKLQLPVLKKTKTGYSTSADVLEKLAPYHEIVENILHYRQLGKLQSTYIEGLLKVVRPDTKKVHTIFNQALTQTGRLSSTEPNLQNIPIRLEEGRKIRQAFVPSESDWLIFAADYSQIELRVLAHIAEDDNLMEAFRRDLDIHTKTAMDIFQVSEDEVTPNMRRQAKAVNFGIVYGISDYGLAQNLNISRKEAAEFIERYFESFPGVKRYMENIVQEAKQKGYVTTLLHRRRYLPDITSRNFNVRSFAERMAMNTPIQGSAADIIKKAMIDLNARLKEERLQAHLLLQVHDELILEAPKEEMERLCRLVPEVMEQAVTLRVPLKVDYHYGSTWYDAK

**Q.** With `[Ba+2]` [Ba^2+] as the molecule, how does the “Kinetics of 3′-amino primer extension vs. absence of added divalent metals” value [1] read?
**A.** Its value is “faster”.

**Q.** For `[Ca+2]` [Ca^2+], which “pre-steady-state rate constant for nCTP addition” value ([2]; 55° C.) is on record?
**A.** Its value is 0.069 min⁻¹.

**Q.** And the SDKIE [3]?
**A.** Its SDKIE is 1.16.

**Q.** What about the “Maximum reaction velocity, saturating Ca2+ vs. Mg2+” value ([1]; 1 mM dCTP) of the same molecule?
**A.** The value was about 5 fold.

**Q.** And the “kpol of 3′-amino primer extension by wild-type BF” value ([1]; 1 mM dCTP)?
**A.** The value was 0.075 min⁻¹.

**Q.** What about the “Kinetics of 3′-amino primer extension vs. absence of added divalent metals” value [1] of the same molecule?
**A.** Its value is “faster”.

**Q.** And the Kd [1]?
**A.** Its Kd is 2100 µM.

**Q.** And the “Kinetic effect among divalent cofactors” value ([1]; pH 8.8 and 55° C.)?
**A.** The value was “largest kinetic effect”.

**Q.** What about the Maximum reaction velocity ([1]; saturating metal ion) of the same molecule?
**A.** Its Maximum reaction velocity is about 4.5 nt/hr.

**Q.** With `[Lu+3]` [Lu^3+] as the molecule, how does the burst activity kpol ([2]; 55° C., nCTP, mean±s.e.m) read?
**A.** The burst activity kpol was 6.9±0.7.

**Q.** What about the “Effect on single-nucleotide 3′-amino primer extension” value ([2]; vs. Ca2+) of the same molecule?
**A.** The value was “significantly improved”.

**Q.** And the “Multiple turnover activity in long primer extensions relative to Sc3+” value ([4]; 55° C.)?
**A.** Its value is “far weaker multiple turnover activity”.

**Q.** And the “Effect on NP-DNA polymerization with all four nNTPs on mixed sequence templates” value (from here on “Effect on NP-DNA polymerization”) [4]?
**A.** The value was “significantly improved”.

**Q.** And the “pre-steady-state rate constant for extension of a native DNA 3′-OH terminus with nCTP” value [5]?
**A.** Its value is 8±1×10^−3 min^−1.

**Q.** `[Mg+2]` [Mg^2+] was tested. Which “Effect of added Mg2+ on NP-DNA synthesis activated by Sc3+” value ([4]; low millimolar range) did it give?
**A.** The value was “inhibited”.

**Q.** What about the “kpol of 3′-amino primer extension by wild-type BF” value ([1]; 1 mM dCTP) of the same molecule?
**A.** Its value is 0.015 min⁻¹.

**Q.** What about the “Kinetics of 3′-amino primer extension vs. absence of added divalent metals” value [1] of the same molecule?
**A.** Its value is “faster”.

**Q.** What about the Kd [1] of the same molecule?
**A.** Its Kd is 1300 µM.

**Q.** Which “Additional thio effect for Rp vs. Sp substrate” value ([6]; Ca2+ activated) does the source give for `Nc1ccn([C@H]2C[C@H](O)[C@@H](COP(O)(=S)OP(=O)(O)OP(=O)(O)O)O2)c(=O)n1` (stereo partly drawn) [Rp-dCTPαS, 2′-deoxycytidine 5′-O-(1-thiotriphosphate), reference compound] here?
**A.** The value was 4 fold.

**Q.** Which “pre-steady-state rate constant for nCTP addition” value ([2]; 55° C.) does the source give for `[Sc+3]` [Sc^3+] here?
**A.** Its value is 7.1 ± 0.5 min⁻¹ and 6.8 ± 0.3 min⁻¹.

**Q.** And the “Acceleration of kinetics over Ca2+” value ([2]; 55° C.)?
**A.** Its value is about 100 fold.

**Q.** And the “Acceleration of kinetics over Ca2+” value ([2]; 55° C., listed as Scandium(III))?
**A.** Its value is over 100 fold.

**Q.** And the “Effect on single-nucleotide 3′-amino primer extension” value ([2]; vs. Ca2+)?
**A.** Its value is “significantly improved”.

**Q.** What about the Stabilization effect ([2]; vs. Ca2+) of the same molecule?
**A.** Its Stabilization effect is “ca. −3 kcal/mol”.

**Q.** What about the “Length of NP-DNA strands yielded” value [4] of the same molecule?
**A.** Its value is at least 100 nts.

**Q.** What about the “Overall NP polymerase reaction time to yield full length products” value ([4]; Sc3+ and spermine, 55° C.) of the same molecule?
**A.** The value was 0.9-1.3 min/nt.

**Q.** And the “Effect on NP-DNA polymerization” value [4]?
**A.** The value was “significantly improved”.

**Q.** What about the “Full length products on mixed sequence DNA templates” value ([4]; with spermine, 55° C.) of the same molecule?
**A.** The value was “up to +71 nt”.

**Q.** What about the “Time to synthesize full length products” value ([4]; with spermine, 55° C., +71 or +100 nt templates) of the same molecule?
**A.** The value was 1 to 2 h.

**Q.** What about the “Full length products on mixed sequence DNA templates, with additional enzyme” value ([4]; with spermine, additional enzyme, 55° C.) of the same molecule?
**A.** The value was “up to +100 nt”.

**Q.** And the “Specificity for the Sp over Rp substrates” value ([6]; Sc3+ activated)?
**A.** Its value is 66 fold.

**Q.** And the thio effect ([6]; Sc3+ activated, mean±s.d.)?
**A.** The thio effect was 0.58±0.07.

**Q.** And the “pre-steady-state rate constant for extension of a native DNA 3′-OH terminus with nCTP” value [5]?
**A.** The value was 5.5±0.6×10^−3 min^−1.

**Q.** And the “3′-OH extension compared with 3′-NH2 extension” value ([5]; nCTP)?
**A.** The value was “at least three orders of magnitude slower”.

**Q.** For `Nc1ccn([C@H]2C[C@H](O)[C@@H](COP(O)(=S)OP(=O)(O)OP(=O)(O)O)O2)c(=O)n1` (stereo partly drawn) [Sp-dCTPαS, 2′-deoxycytidine 5′-O-(1-thiotriphosphate), reference compound], which “thio effect kO/kS” value ([6]; Ca2+ activated, dCTP vs. Sp-dCTPαS, mean±s.d.) is on record?
**A.** The value was 10.6±0.5.

**Q.** For `[Sr+2]` [Sr^2+], which “Kinetics of 3′-amino primer extension vs. absence of added divalent metals” value [1] is on record?
**A.** Its value is “faster”.

**Q.** Which “Effect on single-nucleotide 3′-amino primer extension” value ([2]; vs. Ca2+) does the source give for `[Y+3]` [Y^3+] here?
**A.** The value was “significantly improved”.

**Q.** And the “Effect on NP-DNA polymerization” value [4]?
**A.** Its value is “significantly improved”.

**Q.** With `NCCCNCCCCNCCCN` [spermine] as the molecule, how does the “Activation of long NP-DNA synthesis by polyamine” value [4] read?
**A.** The value was “optimal at low micromolar concentrations”.
